In ChEMBL document CHEMBL5291721, “A preclinical secondary pharmacology resource illuminates target-adverse drug reaction associations of marketed drugs” (Nat Commun, 2023):

Assays:
[1] = molecular target: T1, Neuropeptide Y receptor type 1 (Homo sapiens, UniProt P25929)
T1 sequence (P25929 whole entry): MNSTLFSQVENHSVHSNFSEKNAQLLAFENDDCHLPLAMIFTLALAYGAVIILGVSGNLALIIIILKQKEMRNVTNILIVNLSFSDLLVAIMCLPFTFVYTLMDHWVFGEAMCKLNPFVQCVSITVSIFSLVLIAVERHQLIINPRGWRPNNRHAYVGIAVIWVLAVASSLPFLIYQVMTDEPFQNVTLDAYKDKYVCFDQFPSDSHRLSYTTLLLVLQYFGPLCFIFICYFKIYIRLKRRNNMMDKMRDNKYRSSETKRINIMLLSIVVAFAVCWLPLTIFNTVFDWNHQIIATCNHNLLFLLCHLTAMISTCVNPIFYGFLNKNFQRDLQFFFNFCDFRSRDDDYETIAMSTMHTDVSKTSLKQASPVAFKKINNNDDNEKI

[2] = molecular target: T2, 5-hydroxytryptamine receptor 2C (Homo sapiens, UniProt P28335)
T2 sequence (P28335 whole entry): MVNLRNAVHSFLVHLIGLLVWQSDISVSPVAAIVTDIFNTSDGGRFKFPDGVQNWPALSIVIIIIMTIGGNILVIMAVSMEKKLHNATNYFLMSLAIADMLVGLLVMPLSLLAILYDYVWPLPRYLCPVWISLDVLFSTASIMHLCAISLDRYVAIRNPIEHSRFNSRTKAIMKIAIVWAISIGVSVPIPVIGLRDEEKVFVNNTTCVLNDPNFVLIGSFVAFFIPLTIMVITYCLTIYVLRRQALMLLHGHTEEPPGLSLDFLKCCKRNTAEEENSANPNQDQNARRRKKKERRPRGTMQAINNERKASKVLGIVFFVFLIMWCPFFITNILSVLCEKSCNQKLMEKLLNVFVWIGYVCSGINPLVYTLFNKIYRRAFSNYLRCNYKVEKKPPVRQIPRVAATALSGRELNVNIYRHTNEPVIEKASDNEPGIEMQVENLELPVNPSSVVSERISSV

[3] = molecular target: T3, Prostaglandin G/H synthase 1 (Rattus norvegicus, UniProt Q63921); type: functional
T3 sequence (Q63921 whole entry): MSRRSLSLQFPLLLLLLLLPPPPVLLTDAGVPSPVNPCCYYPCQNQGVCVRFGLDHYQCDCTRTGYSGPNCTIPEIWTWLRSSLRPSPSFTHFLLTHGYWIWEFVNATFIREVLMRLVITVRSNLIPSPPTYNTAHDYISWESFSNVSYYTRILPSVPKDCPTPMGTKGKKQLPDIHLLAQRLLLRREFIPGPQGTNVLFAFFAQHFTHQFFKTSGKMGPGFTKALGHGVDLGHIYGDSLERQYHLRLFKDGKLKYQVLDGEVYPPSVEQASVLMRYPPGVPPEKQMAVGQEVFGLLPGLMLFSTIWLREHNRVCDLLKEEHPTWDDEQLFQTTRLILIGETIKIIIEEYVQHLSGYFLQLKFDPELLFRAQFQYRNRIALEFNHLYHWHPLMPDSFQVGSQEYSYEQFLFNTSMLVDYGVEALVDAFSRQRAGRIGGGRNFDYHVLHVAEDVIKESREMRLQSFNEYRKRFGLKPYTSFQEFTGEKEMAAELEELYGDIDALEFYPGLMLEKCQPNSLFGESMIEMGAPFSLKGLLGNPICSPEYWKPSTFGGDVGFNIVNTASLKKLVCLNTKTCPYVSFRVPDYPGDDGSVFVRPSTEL

[4] = molecular target: T4, Muscarinic acetylcholine receptor M2 (Homo sapiens, UniProt P08172); type: functional, cell-based
T4 sequence (P08172 whole entry): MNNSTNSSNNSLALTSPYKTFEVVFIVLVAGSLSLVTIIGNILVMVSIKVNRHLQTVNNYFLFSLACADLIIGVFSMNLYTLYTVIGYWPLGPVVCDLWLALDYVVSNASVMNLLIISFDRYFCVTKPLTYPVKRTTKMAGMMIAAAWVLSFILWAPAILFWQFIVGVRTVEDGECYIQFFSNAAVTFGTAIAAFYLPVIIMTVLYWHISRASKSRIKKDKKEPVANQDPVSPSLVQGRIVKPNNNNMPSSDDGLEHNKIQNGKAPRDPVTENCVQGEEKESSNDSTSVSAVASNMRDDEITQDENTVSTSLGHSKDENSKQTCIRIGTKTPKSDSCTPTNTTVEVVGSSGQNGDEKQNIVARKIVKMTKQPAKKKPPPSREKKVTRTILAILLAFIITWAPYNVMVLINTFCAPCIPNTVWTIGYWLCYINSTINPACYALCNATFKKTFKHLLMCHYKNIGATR

[5] = molecular target: T5, 5-hydroxytryptamine receptor 3A (Homo sapiens, UniProt P46098); type: functional
T5 sequence (P46098 whole entry): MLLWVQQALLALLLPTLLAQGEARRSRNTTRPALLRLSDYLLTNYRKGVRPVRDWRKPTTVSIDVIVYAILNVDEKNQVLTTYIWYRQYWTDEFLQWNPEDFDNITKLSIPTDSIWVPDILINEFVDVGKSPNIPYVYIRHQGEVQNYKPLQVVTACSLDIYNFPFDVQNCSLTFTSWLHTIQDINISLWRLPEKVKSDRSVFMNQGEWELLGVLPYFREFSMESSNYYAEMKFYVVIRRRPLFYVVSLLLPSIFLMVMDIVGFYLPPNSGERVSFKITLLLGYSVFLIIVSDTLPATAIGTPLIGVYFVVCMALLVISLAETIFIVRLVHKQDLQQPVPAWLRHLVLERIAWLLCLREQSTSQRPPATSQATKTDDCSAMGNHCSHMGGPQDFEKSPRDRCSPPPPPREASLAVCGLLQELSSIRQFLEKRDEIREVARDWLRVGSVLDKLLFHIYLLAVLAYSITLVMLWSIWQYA
Further: assay procedure not described here.

| SMILES | AC50 [1] [µM] | AC50 [2] [µM] | AC50 [3] [µM] | AC50 [4] [µM] | AC50 [5] [µM] |
| --- | --- | --- | --- | --- | --- |
| Oc1cc(O)c(Cl)cn1 | > 30 | > 30 | > 30 | > 30 | > 30 |
| CC(C)N(CCCCOCC(=O)O)c1cnc(-c2ccccc2)c(-c2ccccc2)n1 | > 30 | > 30 | > 30 | > 30 | > 30 |
| C[N+]12CCC(CC1)C(OC(=O)C(O)(c1ccccc1)c1ccccc1)C2 (stereo not drawn) | > 30 | > 30 | > 30 | > 30 | > 30 |
| CC(=O)c1ccc(S(=O)(=O)NC(=O)NC2CCCCC2)cc1 [ACETOHEXAMIDE] | > 10 | > 30 | > 10 | > 10 | > 30 |
| COc1cc(C)c(/C=C/C(C)=C/C=C/C(C)=C/C(=O)O)c(C)c1C [ACITRETIN] | > 10 | > 30 | 0.517 | > 10 | > 30 |
| CCC1(CCC(C)C)C(=O)NC(=O)NC1=O [AMOBARBITAL] | > 10 | > 30 | > 10 | > 10 | > 30 |
| COc1ccc(C2C(=O)c3ccccc3C2=O)cc1 [ANISINDIONE] | > 10 | > 30 | 13 | > 10 | > 30 |
| Cc1cc(=O)n(-c2ccccc2)n1C [ANTIPYRINE] | > 30 | > 30 | > 30 | > 10 | > 30 |
| O=C(O)CCNC(=O)c1ccc(/N=N/c2ccc(O)c(C(=O)O)c2)cc1 [BALSALAZIDE] | > 30 | > 30 | > 30 | > 30 | 15 |
| O=C(O)c1ccc(NC(=O)[C@H](Cc2ccc(O)cc2)NC(=O)c2ccccc2)cc1 [BENTIROMIDE] | > 10 | > 30 | > 10 | > 10 | > 30 |
| NS(=O)(=O)c1cc2c(cc1Cl)N=C(CSCc1ccccc1)NS2(=O)=O [BENZTHIAZIDE] | > 10 | > 30 | > 10 | > 10 | > 10 |
| O=C(CCCN1CCC(O)(c2ccc(Br)cc2)CC1)c1ccc(F)cc1 [BROMPERIDOL] | > 30 | > 30 | > 30 | > 30 | > 30 |
| Clc1ccc(CCC(Cn2ccnc2)Sc2c(Cl)cccc2Cl)cc1 (stereo not drawn) [BUTOCONAZOLE] | > 30 | > 30 | 14 | > 30 | > 30 |
| CO/N=C(\C(=O)N[C@@H]1C(=O)N2C(C(=O)O)=CCS[C@H]12)c1csc(N)n1 [CEFTIZOXIME] | > 30 |  | > 30 | > 30 |  |
| CO/N=C(\C(=O)N[C@@H]1C(=O)N2C(C(=O)O)=C(CSc3nc(=O)c(=O)[nH]n3C)CS[C@H]12)c1csc(N)n1 [CEFTRIAXONE] | > 30 | > 30 | > 30 | > 30 | > 30 |
